Four substances from patent publication US20100119494A1, “METHODS AND COMPOSITIONS RELATED TO MODULATING THE EXTRACELLULAR STEM CELL ENVIRONMENT” (Massachusetts Institute of Technology, priority 2005, published 2010) can be followed below.

What all share (format): cell-based, mouse
The test system of experiment [1] is differentiating ES cells (J1). Nature of the experiment: Confocal microscopy of vWF and Oct-4 staining in differentiating ES cells. The following applies: heparin added to sodium chlorate treated ES cells during differentiation; FIG. 15C. How it is done: (§1) Mouse embryonic stem cells (J1) (gift from Bevin Engelward, Mass. Institute of Technology, Cambridge, Mass.) were grown in DMEM with 2 mM L-glutamine (GIBCO, Carlsbad, Calif.) adjusted to contain […] sodium pyruvate, 10 mM nonessential amino acids and 1.5 g/L sodium bicarbonate, with 15% fetal bovine serum (Hyclone, South Logan, Utah) and supplemented with 100 units/mL penicillin G (Sigma, St. Louis, Mo.), 100 μg/mL streptomycin sulfate (Sigma), 30 mM beta-mercaptoethanol (Sigma) and 1000 units/ml murine leukemia inhibitory factor, LIF (Chemicon, Temecula, Calif.). The cells were plated in 10 cm^2 cell culture dishes, coated with 0.1% gelatin B (Sigma) and grown at 37° C. in a 5% CO2 humidifier incubator. The culture medium was changed every 2 days. The cells were subcultured at a split ratio of 1:10 when they reached 80% to 90% confluency, using a 0.25% trypsin-EDTA solution (Sigma). To induce formation of embryoid bodies and differentiation into endothelial cells, J1 cells were plated at a density of 1.25×10^5 cells/100 mm dish, or 3×10^4 cells/6 wells and cultured in the absence of LIF. Fresh media was replenished every 2 days.
(§2) Heparinase III (Hep-III) was prepared as described previously (Godavarti, R., et al. (1996) Biochemistry 35, 6846-52). Heparinase I (Hep-I) was a generous gift of Momenta Pharmaceuticals (Cambridge, Mass.). Sodium chlorate and heparin were purchased from Sigma and Cambrex BioWhittaker (East Rutherford, N.J.), respectively. To enzymatically modify the HSGAG glycome signature of the cells, cells were washed with phosphate buffer saline (PBS) and incubated with Hep-I or Hep-III for 30 minutes every day at 37° C. in serum free DMEM. Digested HSGAG residues were removed by washing the cells, and cells were then fed with fresh media. In an additional experiment, cells were cultured with medium containing sodium chlorate, which blocks the sulfation of HSGAGs. In a reversal experiment, heparin was added to the culture to overcome the chlorate induced synthetic block. Treated cells were analyzed for differentiation into endothelial cells between day 3 and day 15. Hep-III was added to the cells at a concentration of 2.5 μg/mL, Hep-I was added at a concentration of 1.5 μg/mL, sodium chlorate at 10 mM and heparin (20 μg). The concentrations of enzymes were optimized to exhaustively cleave all cell surface HSGAGs in the given period of time. All enzymes and chemicals were diluted in serum free DMEM.
For microscopic analysis of endothelial cells, the differentiating J1 cells were fixed in cold methanol at designated time points, blocked in goat serum and probed overnight with a rabbit primary antibody against vWF, an endothelial cell marker, or Oct-4, a stem cell marker. The sections were washed and re-probed with a goat secondary antibody coupled to FITC. The nuclei were counterstained with propidium iodide. Images were captured using a […] LSM510 confocal microscope at a 512×512 pixels resolution (Leica, Bannockburn, Ill.). Fluorochromes were excited with 488 nm and 543 nm laser lines, and the images were captured using 505-530 BP and 565-615 BP filters at a 512×512 pixels resolution.
To dissect the role of HSGAG structure in ES cell differentiation, the cell surface and extracellular HSGAG moieties of differentiating ES cells were modified using an enzymatic and pharmacological approach. Specifically, differentiating ES cells were incubated with Hep-I or Hep-III for 30 minutes every day to cleave the cell surface and extracellular matrix (ECM) HSGAGs at structurally distinct sites, or cultured in media supplemented with sodium chlorate, which is a pharmacological inhibitor of HSGAG biosynthesis (Safaiyan, F., et al. (1999) J Biol Chem 274, 36267-73). Hep-I cleaves HSGAGs at highly sulfated regions, and Hep-III cleaves HSGAGs at undersulfated regions (Linhardt, R. J., et al. (1990) Biochemistry 29, 2611-7; Godavarti, R., and Sasisekharan, R. (1996) Biochem Biophys Res Commun 229, 770-7). […]

In experiment [2] the test system is differentiating ES cells (J1). Kind of experiment: Real-time PCR of Oct-4, VEGF-R2, VE-cadherin and eNOS transcripts in differentiating ES cells. The following applies: heparin added to sodium chlorate treated ES cells. The procedure:
as §1, §2
RNA was isolated from J1 cells using TRIzol (Invitrogen, Carlsbad, Calif.) and RNAlater (Qiagen, Valencia, Calif.) according to the manufacturer's protocol. Single-stranded cDNA was generated via oligo-dT primed reverse transcription, and genes serving as markers for differentiation were quantified using an Abi Prism 7700 real-time PCR thermocycler (Applied Biosystems, Foster City, Calif.). Expression levels were obtained for the marker genes Oct-4, VE-cadherin, VEGF-R2, and eNOS, with β-actin used as a control. PCR conditions involved denaturation for 10 min at 95° C., followed by 40 cycles of denaturation for 20 sec at 94° C., and annealing and extension for 1 min at 60° C. cDNA isolated from J1 cells and primers for the described genes were mixed with SYBR Green PCR Mastermix (Applied Biosystems) for real-time quantification according to the manufacturers instructions. Primers used were 5′-[…]-3′ (SEQ ID NO: 1) and 5′-[…]-3′ (SEQ ID NO: 2) for Oct-4; 5′-[…]-3′ (SEQ ID NO: 3) and 5′-[…]-3′ (SEQ ID NO: 4) for VE-cadherin; 5′-[…]-3′ (SEQ ID NO: 5) and 5′-[…]-3′ (SEQ ID NO: 6) for TIE-2; 5′-[…]-3′ (SEQ ID NO: 7) and 5′-[…]-3′ (SEQ ID NO: 8) for VEGF-R2; 5′-[…]-3′ (SEQ ID NO: 9) and 5% […]-3′ (SEQ ID NO: 10) for ENOS; 5′-[…]-'3 (SEQ ID NO: 11) and 5′-[…]-'3 (SEQ ID NO: 12) for 13-actin. The sulfotransferase primers and conditions were chosen. […]

The subject of experiment [3] is phosphorylation of ERK1/2 (MAPK pathway). Kind of experiment: Western blot of phospho-ERK normalized to total ERK1/2 in differentiating ES cells. To be noted: exogenous heparin added to treated cells. How it is done: as §2
For elucidating the biochemical pathways involved downstream of the modulation of the cell surface sugars, protein contents of the embryoid bodies were solubilized by rapid mixing with 3× SDS sample buffer under reducing conditions. Equivalent amounts of protein per sample were electrophoretically resolved on 4-12% gradient polyacrylamide gels and transferred onto a nitrocellulose (0.22 μm) membrane. The membrane was subsequently probed with a phosphor-ERK antibody (1:800 dilution, Cell Signaling Technologies, Danvers, Mass.), which specifically detects the phosphorylated forms of ERK1 and 2. The signal was amplified using a 1:2000 dilution of the appropriate horseradish peroxidase-conjugated secondary antibody (BioRad, Hercules, Calif.), and the immunocomplexes were visualized using enhanced chemiluminescence detection (Amersham Life Science, Piscataway, N.J.). The signal was normalized to the expression of total ERK1/2, which was detected on the same blot using ERK1/2 specific antibodies (Santa Cruz, Santa Cruz, Calif., used at a 1:200 dilution). Quantification of the luminescence signal was carried out by a Kodak 2000R imager.
The MAPK pathway is the downstream convergence point of the signaling of several angiogenic factors such as VEGF, FGF, HGF, EGF, PDGF and angiopoietins (Sengupta, S., et al. (2003) Arterioscler Thromb Vasc Biol 23, 69-75). […]

Experiment [4] has as its system ES cells. Kind of experiment: Optimization of culture conditions for differentiation of ES cells into endothelial cells (marker expression). To be noted: 15% FBS present, LIF absent.
Description: Mouse embryonic stem cells (J1) (gift from Bevin Engelward, Mass. Institute of Technology, Cambridge, Mass.) were grown in DMEM with 2 mM L-glutamine (GIBCO, Carlsbad, Calif.) adjusted to contain 100 mM sodium pyruvate, 10 mM nonessential amino acids and 1.5 g/L sodium bicarbonate, with 15% fetal bovine serum (Hyclone, South Logan, Utah) and supplemented with 100 units/mL penicillin G (Sigma, St. Louis, Mo.), 100 μg/mL streptomycin sulfate (Sigma), 30 mM beta-mercaptoethanol (Sigma) and 1000 units/ml murine leukemia inhibitory factor, LIF (Chemicon, Temecula, Calif.). The cells were plated in 10 cm^2 cell culture dishes, coated with 0.1% gelatin B (Sigma) and grown at 37° C. in a 5% CO2 humidifier incubator. The culture medium was changed every 2 days. The cells were subcultured at a split ratio of 1:10 when they reached 80% to 90% confluency, using a 0.25% trypsin-EDTA solution (Sigma). To induce formation of embryoid bodies and differentiation into endothelial cells, J1 cells were plated at a density of 1.25×10^5 cells/100 mm dish, or 3×10^4 cells/6 wells and cultured in the absence of LIF. Fresh media was replenished every 2 days.
To optimize the conditions for efficient differentiation of ES cells into endothelial cells in vitro, the expression levels of ES cell specific and endothelial cell specific markers were analyzed at different stages of differentiation under different cell culture conditions. Specifically, the effects of cell density, the ECM content (i.e., gelatin, collagen, laminin, matrigel), exogenous addition of growth factors (i.e., VEGF, FGF, HGF and insulin) and different types of serum (i.e., Sigma fetal bovine serum (FBS) and Hyclone FBS) were tested.

Regarding heparin [reference compound], the “vWF staining (confocal microscopy), reconstitution” value in experiment [1] is “increased vWF staining”. In experiment [2], the “VE-cadherin transcript levels, reconstitution” value is listed as “increased” and the “eNOS transcript levels, reconstitution” value is given as “increased”. The “phosphorylation of ERK1/2, reversal of inhibition” value in experiment [3] is listed as “inhibition is reversed”.

Regarding “HGF: growth factor added exogenously to the culture”, the “effect of exogenous addition of growth factors on differentiation into endothelial cells” value in experiment [4] was “No effects”.

Take “insulin: listed among growth factors added exogenously to the culture”: the “effect of exogenous addition of growth factors on differentiation into endothelial cells” value in experiment [4] is “No effects”.

Turning to VEGF, the “effect of exogenous addition of growth factors on differentiation into endothelial cells” value in experiment [4] is listed as “No effects”.
